{
  "source": "patent US6380146B1",
  "about": "“Bleaching detergent compositions” (priority 1999, dated 2002)",
  "key": {"[1]": {"system": "phenol oxidizing enzyme from Acremonium murorum", "conditions": "enhancer 250 μM, detergent formulation 2 g/l, pH 9, 30 min, 30° C.; for Stain bleach performance ΔE, Tomato Extract, With enzyme: enzyme 20 mg/l; for Stain bleach performance ΔE, Tomato Extract, Without enzyme: no enzyme", "protocol": "(§1) The potential of the various enhancer to boost the bleach performance of phenol oxidizing enzyme was assessed by washing cotton swatches soiled with tomato stains. Two different bleach monitors were used:\nTomato extract material was prepared by acetone extraction of the chromophores from concentrated tomato paste. For the preparation of the stains, the colored acetone solution was applied to cotton swatches\n(§2) The pH of the wash solution was set to pH 9. Purified phenol oxidizing enzyme from Acremonium murorum was added to the wash solution at 20 mg/l. […] The enhancers were all dosed at 250 μM. The wash solution was 50 mM Tris buffer.\n(§3) The swatches were washed during 30 minutes, at 30° C. After the wash, the swatches were tumble-dried and the reflectance spectra were measured using a Minolta spectrometer. The color differences between the swatch before and after the wash data were expressed in the CIELAB L*a*b* color space. In this color space, L* indicates lightness and a* and b* are the chromaticity coordinates. Color differences between two swatches are expressed as ΔE, which is calculated from the following equation:\n(§4) ΔE={square root over (ΔL^2[…] )}"}, "[2]": {"system": "phenol oxidizing enzyme from Acremonium murorum", "assay": "Bleaching of oily tomato stains on cotton swatches by phenol oxidizing enzyme/enhancer system", "conditions": "enhancer 250 μM, detergent formulation 2 g/l, pH 9, 30 min, 30° C.; for Stain bleach performance ΔE, Oily Tomato Stain, With enzyme: enzyme 20 mg/l; for Stain bleach performance ΔE, Oily Tomato Stain, Without enzyme: no enzyme", "protocol": "as §1\nOily tomato stains were prepared by applying heated concentrated tomato paste, to which 5 wt % Soya oil was added, to cotton swatches.\nas §2, §3, §4"}, "[3]": {"system": "phenol oxidizing enzyme from Acremonium murorum", "assay": "Dye damage of the phenol oxidizing enzyme/enhancer system on colored swatch P10, consecutive washes in detergent formulation", "conditions": "enzyme 20 mg/l, enhancer 250 μM, 40° C., 1 hour", "protocol": "(§5) A number of colored swatches were washed to assess the degree to which the enzymatic bleach system provokes dye damage. Each swatch was subjected to 5 consecutive washes in a detergent formulation. The closed containers were agitated by putting them in a washing machine. The machine was run for 1 hour with the water heated to 40° C. The pH of the wash solution was set to pH 9. The phenol oxidizing enzyme from Acremonium murorum (see above) was added to the wash solution at 20 mg/l. The enhancers were all dosed at 250 μM."}, "[4]": {"system": "phenol oxidizing enzyme from Acremonium murorum", "assay": "Dye damage of the phenol oxidizing enzyme/enhancer system on dyed swatches, 3 washes in Tris buffer", "conditions": "Tris buffer pH 8, enzyme 20 mg/l, enhancer 250 μM; for Color difference (ΔE) dyed swatch OO2 after 3 washes: Dyed Monitor OO2, 3 washes; for Color difference (ΔE) dyed swatch OO6 after 3 washes: Dyed Monitor OO6, 3 washes; for Color difference (ΔE) dyed swatch P10 after 3 washes: Dyed Monitor P10, 3 washes; for Color difference (ΔE) dyed swatch PO8 after 3 washes: Dyed Monitor PO8, 3 washes", "protocol": "as §5, with “Each swatch was subjected to 5 consecutive washes in a detergent formulation.” left out, “The pH of the wash solution was set to pH 9.” left out"}, "[5]": {"system": "phenol oxidizing enzyme from Acremonium murorum", "excerpt": "The bleaching detergent composition of the present invention comprise one or more surfactants, a phenol oxidizing enzyme and a compound which acts as enhancer for the phenol oxidizing enzyme, said composition having an Enhancer Index as herein defined of at least 12. The Enhancer Index is defined for the purpose of this invention as the ratio of the bleach effect on tomato stains to the colored monitor P10 (ΔEtomato stain/ΔEP10 colored monitor) , and is further illustrated in the Examples. […] Preferably, the Enhancer Index is at least 15, and in particular in the range of 15-50.\nIn order to express the potential of the various enhancers to provoke stain bleaching in the absence of dye damage, the ratio of bleach effect on the tomato stains to the colored monitor P10 was calculated (ΔEtomato stain/ΔEP10 colored monitor) . This ratio, when tomato extract is used as the stain, is referred to as the ‘Ehancer Index’."}, "[6]": {"conditions": "ΔE oily tomato stain/ΔE P10, 50 mM Tris buffer solution"}, "[7]": {"conditions": "ΔE oily tomato stain/ΔE P10, detergent formulation"}, "[8]": {"conditions": "ΔE tomato extract/ΔE P10, 50 mM Tris buffer solution"}, "[9]": {"conditions": "ΔE tomato extract/ΔE P10, detergent formulation"}},
  "note": "Where two headings read alike, the source gives them in different places.",
  "data": [
    {"smiles": "CCn1c(=NN=c2sc3cc(S(=O)(=O)O)ccc3n2CC)sc2cc(S(=O)(=O)O)ccc21", "note": "[ABTS]", "values": [
      {"measurement": "Stain bleach performance ΔE, Tomato Extract, With enzyme", "setting": "[1]", "result": 37.56},
      {"measurement": "Stain bleach performance ΔE, Tomato Extract, Without enzyme", "setting": "[1]", "result": 11.12},
      {"measurement": "Stain bleach performance ΔE, Oily Tomato Stain, With enzyme", "setting": "[2]", "result": 27.53},
      {"measurement": "Stain bleach performance ΔE, Oily Tomato Stain, Without enzyme", "setting": "[2]", "result": 8.67},
      {"measurement": "Color difference (ΔE) original P10 swatch vs after 1st wash", "setting": "[3]", "result": 1.61},
      {"measurement": "Color difference (ΔE) original P10 swatch vs after 2nd wash", "setting": "[3]", "result": 1.51},
      {"measurement": "Color difference (ΔE) original P10 swatch vs after 3rd wash", "setting": "[3]", "result": 3.29},
      {"measurement": "Color difference (ΔE) original P10 swatch vs after 4th wash", "setting": "[3]", "result": 4.99},
      {"measurement": "Color difference (ΔE) original P10 swatch vs after 5th wash", "setting": "[3]", "result": 6.52},
      {"measurement": "Color difference (ΔE) dyed swatch OO2 after 3 washes", "setting": "[4]", "result": 3.47},
      {"measurement": "Color difference (ΔE) dyed swatch OO6 after 3 washes", "setting": "[4]", "result": 19.70},
      {"measurement": "Color difference (ΔE) dyed swatch P10 after 3 washes", "setting": "[4]", "result": 12.18},
      {"measurement": "Color difference (ΔE) dyed swatch PO8 after 3 washes", "setting": "[4]", "result": 24.02},
      {"measurement": "Ratio Bleach on Stain Monitor/Dye Damage, Oily Tomato Stain", "setting": "[5]; [6]", "result": 2.66},
      {"measurement": "Ratio Bleach on Stain Monitor/Dye Damage, Oily Tomato Stain", "setting": "[5]; [7]", "result": 4.22},
      {"measurement": "Ratio Bleach on Stain Monitor/Dye Damage, Tomato Extract (Enhancer Index)", "setting": "[5]; [8]", "result": 2.93},
      {"measurement": "Ratio Bleach on Stain Monitor/Dye Damage, Tomato Extract (Enhancer Index)", "setting": "[5]; [9]", "result": 5.76}
    ]},
    {"smiles": "Cc1ccc(S(=O)(=O)Nc2cc(Br)c(O)c(Br)c2Br)cc1", "note": "[3Brphenol3MeBSA, N-(2,3,5-tribromo-4-hydroxyphenyl)-4-Methyl Benzenesulfonamide]", "values": [
      {"measurement": "Stain bleach performance ΔE, Tomato Extract, With enzyme", "setting": "[1]", "result": 27.57},
      {"measurement": "Stain bleach performance ΔE, Tomato Extract, Without enzyme", "setting": "[1]", "result": 12.86},
      {"measurement": "Stain bleach performance ΔE, Oily Tomato Stain, With enzyme", "setting": "[2]", "result": 11.71},
      {"measurement": "Stain bleach performance ΔE, Oily Tomato Stain, Without enzyme", "setting": "[2]", "result": 6.87},
      {"measurement": "Color difference (ΔE) original P10 swatch vs after 1st wash", "setting": "[3]", "result": 0.93},
      {"measurement": "Color difference (ΔE) original P10 swatch vs after 2nd wash", "setting": "[3]", "result": 0.98},
      {"measurement": "Color difference (ΔE) original P10 swatch vs after 3rd wash", "setting": "[3]", "result": 1.10},
      {"measurement": "Color difference (ΔE) original P10 swatch vs after 4th wash", "setting": "[3]", "result": 1.62},
      {"measurement": "Color difference (ΔE) original P10 swatch vs after 5th wash", "setting": "[3]", "result": 1.86},
      {"measurement": "Color difference (ΔE) dyed swatch OO2 after 3 washes", "setting": "[4]", "result": 0.41},
      {"measurement": "Color difference (ΔE) dyed swatch OO6 after 3 washes", "setting": "[4]", "result": 4.59},
      {"measurement": "Color difference (ΔE) dyed swatch P10 after 3 washes", "setting": "[4]", "result": 0.96},
      {"measurement": "Color difference (ΔE) dyed swatch PO8 after 3 washes", "setting": "[4]", "result": 1.52},
      {"measurement": "Ratio Bleach on Stain Monitor/Dye Damage, Oily Tomato Stain", "setting": "[5]; [6]", "result": 6.46},
      {"measurement": "Ratio Bleach on Stain Monitor/Dye Damage, Oily Tomato Stain", "setting": "[5]; [7]", "result": 6.29},
      {"measurement": "Ratio Bleach on Stain Monitor/Dye Damage, Tomato Extract (Enhancer Index)", "setting": "[5]; [8]", "result": 20.40},
      {"measurement": "Ratio Bleach on Stain Monitor/Dye Damage, Tomato Extract (Enhancer Index)", "setting": "[5]; [9]", "result": 14.82}
    ]},
    {"smiles": "O=C(O)CCN1c2ccccc2Sc2ccccc21", "note": "[PTP, Phenothiazine-10-propionate]", "values": [
      {"measurement": "Stain bleach performance ΔE, Tomato Extract, With enzyme", "setting": "[1]", "result": 33.66},
      {"measurement": "Stain bleach performance ΔE, Tomato Extract, Without enzyme", "setting": "[1]", "result": 12.00},
      {"measurement": "Stain bleach performance ΔE, Oily Tomato Stain, With enzyme", "setting": "[2]", "result": 9.41},
      {"measurement": "Stain bleach performance ΔE, Oily Tomato Stain, Without enzyme", "setting": "[2]", "result": 8.54},
      {"measurement": "Color difference (ΔE) original P10 swatch vs after 1st wash", "setting": "[3]", "result": 0.51},
      {"measurement": "Color difference (ΔE) original P10 swatch vs after 2nd wash", "setting": "[3]", "result": 0.78},
      {"measurement": "Color difference (ΔE) original P10 swatch vs after 3rd wash", "setting": "[3]", "result": 1.79},
      {"measurement": "Color difference (ΔE) original P10 swatch vs after 4th wash", "setting": "[3]", "result": 2.63},
      {"measurement": "Color difference (ΔE) original P10 swatch vs after 5th wash", "setting": "[3]", "result": 3.25},
      {"measurement": "Color difference (ΔE) dyed swatch OO2 after 3 washes", "setting": "[4]", "result": 6.34},
      {"measurement": "Color difference (ΔE) dyed swatch OO6 after 3 washes", "setting": "[4]", "result": 15.64},
      {"measurement": "Color difference (ΔE) dyed swatch P10 after 3 washes", "setting": "[4]", "result": 9.66},
      {"measurement": "Color difference (ΔE) dyed swatch PO8 after 3 washes", "setting": "[4]", "result": 12.57},
      {"measurement": "Ratio Bleach on Stain Monitor/Dye Damage, Oily Tomato Stain", "setting": "[5]; [6]", "result": 0.69},
      {"measurement": "Ratio Bleach on Stain Monitor/Dye Damage, Oily Tomato Stain", "setting": "[5]; [7]", "result": 2.89},
      {"measurement": "Ratio Bleach on Stain Monitor/Dye Damage, Tomato Extract (Enhancer Index)", "setting": "[5]; [8]", "result": 3.59},
      {"measurement": "Ratio Bleach on Stain Monitor/Dye Damage, Tomato Extract (Enhancer Index)", "setting": "[5]; [9]", "result": 10.35}
    ]},
    {"smiles": "O=S(=O)(Nc1cc(Br)c(O)c(Br)c1Br)c1ccccc1", "note": "[Enhancer 3BrphenolBSA, N-(2,3,5-tribromo-4-hydroxyphenyl)-Benzenesulfonamide]", "values": [
      {"measurement": "Stain bleach performance ΔE, Tomato Extract, With enzyme", "setting": "[1]", "result": 26.87},
      {"measurement": "Stain bleach performance ΔE, Tomato Extract, Without enzyme", "setting": "[1]", "result": 12.99},
      {"measurement": "Stain bleach performance ΔE, Oily Tomato Stain, With enzyme", "setting": "[2]", "result": 10.95},
      {"measurement": "Stain bleach performance ΔE, Oily Tomato Stain, Without enzyme", "setting": "[2]", "result": 6.89},
      {"measurement": "Color difference (ΔE) original P10 swatch vs after 1st wash", "setting": "[3]", "result": 1.69},
      {"measurement": "Color difference (ΔE) original P10 swatch vs after 2nd wash", "setting": "[3]", "result": 1.17},
      {"measurement": "Color difference (ΔE) original P10 swatch vs after 3rd wash", "setting": "[3]", "result": 1.20},
      {"measurement": "Color difference (ΔE) original P10 swatch vs after 4th wash", "setting": "[3]", "result": 1.55},
      {"measurement": "Color difference (ΔE) original P10 swatch vs after 5th wash", "setting": "[3]", "result": 1.77},
      {"measurement": "Color difference (ΔE) dyed swatch OO2 after 3 washes", "setting": "[4]", "result": 0.47},
      {"measurement": "Color difference (ΔE) dyed swatch OO6 after 3 washes", "setting": "[4]", "result": 4.45},
      {"measurement": "Color difference (ΔE) dyed swatch P10 after 3 washes", "setting": "[4]", "result": 1.00},
      {"measurement": "Color difference (ΔE) dyed swatch PO8 after 3 washes", "setting": "[4]", "result": 1.45},
      {"measurement": "Ratio Bleach on Stain Monitor/Dye Damage, Oily Tomato Stain", "setting": "[5]; [6]", "result": 5.62},
      {"measurement": "Ratio Bleach on Stain Monitor/Dye Damage, Oily Tomato Stain", "setting": "[5]; [7]", "result": 6.18},
      {"measurement": "Ratio Bleach on Stain Monitor/Dye Damage, Tomato Extract (Enhancer Index)", "setting": "[5]; [8]", "result": 19.97},
      {"measurement": "Ratio Bleach on Stain Monitor/Dye Damage, Tomato Extract (Enhancer Index)", "setting": "[5]; [9]", "result": 15.18}
    ]}
  ]
}
